Measured values reported in ChEMBL document CHEMBL3856204, “Chiral 6-aryl-furo[2,3-d]pyrimidin-4-amines as EGFR inhibitors” (Eur J Med Chem, 2016).

What was measured:
[1] = target: Tyrosine-protein kinase Fer (Homo sapiens) (UniProt P16591); assay: Inhibition of recombinant human GST-tagged FER (541 to 822 residues) expressed in baculovirus at 500 nM by Z'-LYTE assay- tagged
[2] = target: Tyrosine-protein kinase HCK (Homo sapiens) (UniProt P08631); assay: Inhibition of recombinant full length human N-terminal GST-tagged HCK expressed in baculovirus at 500 nM by Z'-LYTE assay
[3] = target: T1, Inhibitor of nuclear factor kappa-B kinase subunit beta (Homo sapiens) (UniProt O14920); assay: Inhibition of GST tagged recombinant full length human IKK beta expressed in baculovirus at 500 nM by Z'-LYTE assay
T1 sequence (whole entry): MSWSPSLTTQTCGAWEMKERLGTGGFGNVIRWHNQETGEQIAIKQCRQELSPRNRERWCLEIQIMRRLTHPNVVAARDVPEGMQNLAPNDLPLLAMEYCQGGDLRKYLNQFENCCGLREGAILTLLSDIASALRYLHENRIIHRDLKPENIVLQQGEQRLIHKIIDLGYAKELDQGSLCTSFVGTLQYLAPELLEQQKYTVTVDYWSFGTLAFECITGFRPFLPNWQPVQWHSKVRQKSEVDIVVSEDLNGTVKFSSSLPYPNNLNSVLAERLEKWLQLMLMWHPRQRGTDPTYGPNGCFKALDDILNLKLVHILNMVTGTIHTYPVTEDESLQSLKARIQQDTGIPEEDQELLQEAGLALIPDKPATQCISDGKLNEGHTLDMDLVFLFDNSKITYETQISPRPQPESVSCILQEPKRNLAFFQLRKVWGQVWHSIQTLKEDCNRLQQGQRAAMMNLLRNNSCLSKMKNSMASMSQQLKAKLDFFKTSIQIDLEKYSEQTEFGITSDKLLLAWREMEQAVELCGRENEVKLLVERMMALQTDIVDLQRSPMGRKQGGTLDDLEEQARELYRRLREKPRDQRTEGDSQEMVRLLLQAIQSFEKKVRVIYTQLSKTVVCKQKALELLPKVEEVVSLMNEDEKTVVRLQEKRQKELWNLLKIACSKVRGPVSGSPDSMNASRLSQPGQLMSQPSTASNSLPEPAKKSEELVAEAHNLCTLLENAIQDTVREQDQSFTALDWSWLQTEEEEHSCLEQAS

[4] = target: Vascular endothelial growth factor receptor 2 (Homo sapiens) (UniProt P35968); assay: Inhibition of His tagged recombinant human KDR (789 to 1356 residues) expressed in baculovirus at 500 nM by Z'-LYTE assay
[5] = target: T2, Serine/threonine-protein kinase Nek1 (Homo sapiens) (UniProt Q96PY6); assay: Inhibition of GST tagged recombinant human NEK1 catalytic domain (1 to 505 residues) expressed in baculovirus at 500 nM by Z'-LYTE assay
T2 sequence (whole entry): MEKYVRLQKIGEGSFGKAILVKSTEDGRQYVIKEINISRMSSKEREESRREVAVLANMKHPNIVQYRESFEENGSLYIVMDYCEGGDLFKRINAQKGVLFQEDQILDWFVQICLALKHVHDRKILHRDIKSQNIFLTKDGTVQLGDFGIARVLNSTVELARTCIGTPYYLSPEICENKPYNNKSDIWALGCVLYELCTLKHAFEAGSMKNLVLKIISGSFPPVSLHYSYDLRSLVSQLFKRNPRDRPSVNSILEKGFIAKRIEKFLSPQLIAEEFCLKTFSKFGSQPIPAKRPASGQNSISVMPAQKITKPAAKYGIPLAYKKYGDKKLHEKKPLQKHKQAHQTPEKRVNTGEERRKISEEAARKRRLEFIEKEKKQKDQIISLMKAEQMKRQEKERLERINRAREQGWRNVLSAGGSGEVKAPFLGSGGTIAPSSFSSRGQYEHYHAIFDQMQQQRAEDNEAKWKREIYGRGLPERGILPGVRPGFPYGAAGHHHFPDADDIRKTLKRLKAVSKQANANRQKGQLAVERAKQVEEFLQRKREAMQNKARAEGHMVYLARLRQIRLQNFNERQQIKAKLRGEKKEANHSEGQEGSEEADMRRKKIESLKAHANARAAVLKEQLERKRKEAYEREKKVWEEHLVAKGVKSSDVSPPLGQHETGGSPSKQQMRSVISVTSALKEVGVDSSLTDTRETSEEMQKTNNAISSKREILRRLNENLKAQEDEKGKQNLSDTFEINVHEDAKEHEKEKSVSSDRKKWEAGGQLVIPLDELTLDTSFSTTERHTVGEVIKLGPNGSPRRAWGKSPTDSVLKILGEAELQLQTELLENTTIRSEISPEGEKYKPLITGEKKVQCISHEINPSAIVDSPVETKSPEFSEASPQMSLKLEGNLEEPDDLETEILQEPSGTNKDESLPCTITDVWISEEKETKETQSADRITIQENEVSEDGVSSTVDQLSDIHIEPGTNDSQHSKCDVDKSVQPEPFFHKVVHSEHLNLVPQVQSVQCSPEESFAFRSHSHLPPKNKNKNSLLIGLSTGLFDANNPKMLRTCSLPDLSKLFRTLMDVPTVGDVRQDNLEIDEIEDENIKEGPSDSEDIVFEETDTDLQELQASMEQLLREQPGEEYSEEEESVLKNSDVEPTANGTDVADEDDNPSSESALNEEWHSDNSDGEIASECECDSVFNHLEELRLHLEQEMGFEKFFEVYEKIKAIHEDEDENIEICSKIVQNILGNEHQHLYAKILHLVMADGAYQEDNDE

[6] = target: Ephrin type-A receptor 1 (Homo sapiens) (UniProt P21709); assay: Inhibition of GST tagged recombinant human EPHA1 cytoplasmic domain (568 to 976 residues) expressed in baculovirus at 500 nM by Z'-LYTE assay
[7] = target: Receptor tyrosine-protein kinase erbB-4 (Homo sapiens) (UniProt Q15303); assay: Inhibition of GST tagged recombinant human ERBB4 cytoplasmic domain (708 to 993 residues) expressed in baculovirus at 500 nM by Z'-LYTE assay
[8] = target: Tyrosine-protein kinase Fgr (Homo sapiens) (UniProt P09769); assay: Inhibition of recombinant full length human C-terminal His-tagged FGR expressed in baculovirus at 500 nM by Z'-LYTE assay
[9] = target: Tyrosine-protein kinase FRK (Homo sapiens) (UniProt P42685); assay: Inhibition of GST tagged recombinant full length human FRK expressed in baculovirus at 500 nM by Z'-LYTE assay
[10] = target: Tyrosine-protein kinase Lyn (Homo sapiens) (UniProt P07948); assay: Inhibition of recombinant full length human N-terminal GST tagged LYN A expressed in insect cells at 500 nM by Z'-LYTE assay
[11] = target: Mitogen-activated protein kinase 8 (Homo sapiens) (UniProt P45983); assay: Inhibition of His tagged recombinant full length human JNK1 expressed in baculovirus at 500 nM by Z'-LYTE assay
[12] = target: Testis-specific serine/threonine-protein kinase 2 (Homo sapiens) (UniProt Q96PF2); assay: Inhibition of His tagged recombinant full length human STK22B expressed in baculovirus at 500 nM by Z'-LYTE assay

Chain of Tyrosine-protein kinase HCK (Homo sapiens) (P08631 2-526 limits assumed): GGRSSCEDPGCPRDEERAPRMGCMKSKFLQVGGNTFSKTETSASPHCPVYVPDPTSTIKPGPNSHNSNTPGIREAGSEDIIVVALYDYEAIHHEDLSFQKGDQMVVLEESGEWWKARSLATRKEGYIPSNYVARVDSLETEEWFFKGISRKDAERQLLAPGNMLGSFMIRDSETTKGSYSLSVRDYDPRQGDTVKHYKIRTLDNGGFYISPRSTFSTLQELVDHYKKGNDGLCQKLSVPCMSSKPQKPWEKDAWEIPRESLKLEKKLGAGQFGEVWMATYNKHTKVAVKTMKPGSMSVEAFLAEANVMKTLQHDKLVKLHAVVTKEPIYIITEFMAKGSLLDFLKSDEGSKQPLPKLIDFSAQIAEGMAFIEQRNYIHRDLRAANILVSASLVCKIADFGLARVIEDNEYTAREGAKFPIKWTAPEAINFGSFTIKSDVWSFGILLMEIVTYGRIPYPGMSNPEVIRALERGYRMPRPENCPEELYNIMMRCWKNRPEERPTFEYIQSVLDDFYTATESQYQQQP
Chain of Tyrosine-protein kinase Fer (Homo sapiens) (P16591 whole entry, looked up, the tested form may be a part): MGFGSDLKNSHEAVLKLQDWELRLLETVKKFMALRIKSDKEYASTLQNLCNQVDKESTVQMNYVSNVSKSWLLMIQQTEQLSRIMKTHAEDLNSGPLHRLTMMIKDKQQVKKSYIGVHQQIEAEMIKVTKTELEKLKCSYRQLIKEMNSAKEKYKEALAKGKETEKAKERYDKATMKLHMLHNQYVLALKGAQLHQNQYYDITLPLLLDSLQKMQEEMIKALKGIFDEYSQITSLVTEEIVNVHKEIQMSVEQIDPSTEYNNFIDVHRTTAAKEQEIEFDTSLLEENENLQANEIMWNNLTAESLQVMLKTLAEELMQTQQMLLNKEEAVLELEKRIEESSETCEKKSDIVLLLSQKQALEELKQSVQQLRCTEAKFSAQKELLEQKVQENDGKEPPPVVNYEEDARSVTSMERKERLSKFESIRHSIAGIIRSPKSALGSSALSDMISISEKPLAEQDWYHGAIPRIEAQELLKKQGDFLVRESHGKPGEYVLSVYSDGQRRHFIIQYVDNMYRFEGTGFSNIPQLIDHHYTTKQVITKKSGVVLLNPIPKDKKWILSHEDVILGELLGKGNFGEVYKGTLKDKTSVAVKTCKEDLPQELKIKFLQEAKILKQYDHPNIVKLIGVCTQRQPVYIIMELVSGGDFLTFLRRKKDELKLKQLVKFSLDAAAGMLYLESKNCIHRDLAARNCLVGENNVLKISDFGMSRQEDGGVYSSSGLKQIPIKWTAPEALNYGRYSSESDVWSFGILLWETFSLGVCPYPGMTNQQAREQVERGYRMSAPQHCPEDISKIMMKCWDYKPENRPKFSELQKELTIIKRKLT
Chain of Vascular endothelial growth factor receptor 2 (Homo sapiens) (P35968 whole entry, the tested form may be a part): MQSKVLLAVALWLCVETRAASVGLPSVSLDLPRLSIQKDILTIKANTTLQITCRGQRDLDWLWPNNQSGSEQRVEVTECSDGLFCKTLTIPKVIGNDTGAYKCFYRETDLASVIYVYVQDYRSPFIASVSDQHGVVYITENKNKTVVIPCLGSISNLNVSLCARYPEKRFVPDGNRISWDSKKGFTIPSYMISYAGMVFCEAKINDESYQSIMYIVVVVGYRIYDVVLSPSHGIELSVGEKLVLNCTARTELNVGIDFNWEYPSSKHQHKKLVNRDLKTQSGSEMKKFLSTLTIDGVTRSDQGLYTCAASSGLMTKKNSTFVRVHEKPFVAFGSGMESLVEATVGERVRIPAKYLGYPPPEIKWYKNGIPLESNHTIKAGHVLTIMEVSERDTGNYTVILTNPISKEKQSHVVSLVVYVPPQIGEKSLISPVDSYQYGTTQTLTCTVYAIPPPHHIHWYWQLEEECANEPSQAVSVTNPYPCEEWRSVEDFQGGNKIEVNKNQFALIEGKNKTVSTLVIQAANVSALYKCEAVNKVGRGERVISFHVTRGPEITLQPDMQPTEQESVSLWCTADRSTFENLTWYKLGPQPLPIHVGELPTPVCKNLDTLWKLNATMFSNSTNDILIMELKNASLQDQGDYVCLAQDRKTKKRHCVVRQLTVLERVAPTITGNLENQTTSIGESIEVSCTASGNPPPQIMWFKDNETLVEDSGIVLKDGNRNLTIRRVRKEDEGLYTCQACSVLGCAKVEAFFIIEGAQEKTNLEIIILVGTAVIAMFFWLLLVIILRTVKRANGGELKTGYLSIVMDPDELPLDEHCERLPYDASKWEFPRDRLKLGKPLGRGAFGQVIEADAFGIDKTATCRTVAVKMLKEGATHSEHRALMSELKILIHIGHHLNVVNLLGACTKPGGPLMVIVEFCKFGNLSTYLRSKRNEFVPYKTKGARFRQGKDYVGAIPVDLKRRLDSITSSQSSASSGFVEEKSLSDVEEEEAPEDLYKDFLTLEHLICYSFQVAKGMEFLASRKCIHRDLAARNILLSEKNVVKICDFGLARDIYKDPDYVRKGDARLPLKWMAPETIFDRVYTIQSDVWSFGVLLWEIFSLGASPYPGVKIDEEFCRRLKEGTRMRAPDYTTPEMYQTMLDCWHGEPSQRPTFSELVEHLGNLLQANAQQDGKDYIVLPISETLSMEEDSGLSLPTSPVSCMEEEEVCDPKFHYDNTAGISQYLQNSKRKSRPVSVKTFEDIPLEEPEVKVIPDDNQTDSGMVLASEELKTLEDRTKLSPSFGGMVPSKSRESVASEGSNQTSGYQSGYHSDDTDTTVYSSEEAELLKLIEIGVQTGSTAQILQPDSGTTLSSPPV
Chain of Receptor tyrosine-protein kinase erbB-4 (Homo sapiens) (Q15303 whole entry, the tested form may be a part): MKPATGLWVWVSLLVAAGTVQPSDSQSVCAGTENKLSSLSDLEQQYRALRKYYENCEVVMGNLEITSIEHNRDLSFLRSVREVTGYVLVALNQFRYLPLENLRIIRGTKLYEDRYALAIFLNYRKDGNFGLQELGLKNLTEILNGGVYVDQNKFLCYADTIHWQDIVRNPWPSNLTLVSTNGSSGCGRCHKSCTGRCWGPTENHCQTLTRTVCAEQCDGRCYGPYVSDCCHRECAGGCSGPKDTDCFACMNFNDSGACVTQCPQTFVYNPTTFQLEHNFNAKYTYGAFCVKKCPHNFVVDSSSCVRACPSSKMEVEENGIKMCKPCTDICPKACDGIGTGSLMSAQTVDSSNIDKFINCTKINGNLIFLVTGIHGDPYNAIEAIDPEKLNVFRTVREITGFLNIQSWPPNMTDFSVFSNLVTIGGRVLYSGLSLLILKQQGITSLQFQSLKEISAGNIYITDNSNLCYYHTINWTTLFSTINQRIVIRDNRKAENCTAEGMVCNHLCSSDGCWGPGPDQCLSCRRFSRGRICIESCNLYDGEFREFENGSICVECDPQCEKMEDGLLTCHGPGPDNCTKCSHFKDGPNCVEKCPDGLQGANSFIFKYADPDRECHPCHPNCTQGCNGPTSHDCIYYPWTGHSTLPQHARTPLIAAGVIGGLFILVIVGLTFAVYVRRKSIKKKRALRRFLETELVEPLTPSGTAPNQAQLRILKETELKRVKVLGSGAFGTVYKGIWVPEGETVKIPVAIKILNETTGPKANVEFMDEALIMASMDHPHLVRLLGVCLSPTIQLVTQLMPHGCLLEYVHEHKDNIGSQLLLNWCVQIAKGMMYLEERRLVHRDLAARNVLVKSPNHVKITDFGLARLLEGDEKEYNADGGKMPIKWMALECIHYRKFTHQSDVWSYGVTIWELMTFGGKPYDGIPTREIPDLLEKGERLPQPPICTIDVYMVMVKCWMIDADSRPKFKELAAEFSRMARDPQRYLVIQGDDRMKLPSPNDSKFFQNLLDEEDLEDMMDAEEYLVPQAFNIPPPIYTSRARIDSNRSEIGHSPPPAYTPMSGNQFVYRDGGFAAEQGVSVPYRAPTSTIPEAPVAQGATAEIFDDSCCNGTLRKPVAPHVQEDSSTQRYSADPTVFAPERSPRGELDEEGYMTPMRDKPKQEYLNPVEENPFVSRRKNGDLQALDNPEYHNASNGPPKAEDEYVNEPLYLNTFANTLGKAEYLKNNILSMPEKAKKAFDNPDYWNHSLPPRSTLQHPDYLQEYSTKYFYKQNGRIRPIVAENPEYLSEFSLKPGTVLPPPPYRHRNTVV
Chain of Ephrin type-A receptor 1 (Homo sapiens) (P21709 whole entry, the tested form may be a part): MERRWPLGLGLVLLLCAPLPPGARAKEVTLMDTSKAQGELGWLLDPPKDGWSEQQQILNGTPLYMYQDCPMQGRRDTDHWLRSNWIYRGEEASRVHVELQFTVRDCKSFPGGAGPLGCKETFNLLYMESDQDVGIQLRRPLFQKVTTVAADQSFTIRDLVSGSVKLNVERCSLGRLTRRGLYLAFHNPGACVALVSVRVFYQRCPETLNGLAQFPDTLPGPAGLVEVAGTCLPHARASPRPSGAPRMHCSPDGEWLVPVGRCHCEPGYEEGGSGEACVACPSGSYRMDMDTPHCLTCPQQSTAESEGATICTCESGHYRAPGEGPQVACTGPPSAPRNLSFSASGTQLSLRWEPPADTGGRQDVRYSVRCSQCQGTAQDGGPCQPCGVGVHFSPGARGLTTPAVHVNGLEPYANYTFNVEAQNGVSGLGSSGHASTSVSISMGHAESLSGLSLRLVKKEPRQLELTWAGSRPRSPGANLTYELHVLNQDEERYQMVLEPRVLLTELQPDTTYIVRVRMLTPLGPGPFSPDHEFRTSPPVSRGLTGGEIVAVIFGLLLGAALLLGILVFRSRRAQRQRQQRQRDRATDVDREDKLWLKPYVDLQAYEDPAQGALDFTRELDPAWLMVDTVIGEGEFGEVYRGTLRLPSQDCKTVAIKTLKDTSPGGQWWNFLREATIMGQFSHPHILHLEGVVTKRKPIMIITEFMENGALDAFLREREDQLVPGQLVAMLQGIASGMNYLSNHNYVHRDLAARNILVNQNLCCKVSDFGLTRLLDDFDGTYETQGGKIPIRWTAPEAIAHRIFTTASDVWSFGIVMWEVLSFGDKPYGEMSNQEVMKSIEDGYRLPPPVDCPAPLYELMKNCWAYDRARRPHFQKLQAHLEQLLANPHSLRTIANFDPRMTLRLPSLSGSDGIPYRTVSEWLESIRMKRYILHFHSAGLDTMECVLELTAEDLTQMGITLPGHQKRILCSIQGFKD

SMILES	inhibition [1]	inhibition [2]	inhibition [3]	inhibition [4]	inhibition [5]	inhibition [6]	inhibition [7]	inhibition [8]	inhibition [9]	inhibition [10]	inhibition [11]	inhibition [12]
C#Cc1cccc(Nc2ncnc3cc(OCCOC)c(OCCOC)cc23)c1	-1%	18%	-5%	70%	-8%							
C[C@@H](Nc1ncnc2oc(-c3ccc(NCCN4CCCCC4)cc3)cc12)c1ccccc1	4%	20%	3%	44%	-1%	34%	18%	56%	21%	37%	6%	2%
C[C@@H](Nc1ncnc2oc(-c3ccc(NCCN(C)C)cc3)cc12)c1ccccc1	6%	21%	2%	37%	3%	26%	32%	60%	31%	35%	1%	-1%
